For 10 compounds, IC50 results are on record in patent US20230139171A1 (SITA Information Networking Computing UK Limited, priority 2019, published 2023).

SMILES strings stand for the structures.

Assay type in all cases: cell-based
For test [1], the target named is T1, human TLR7 (Homo sapiens, UniProt Q9NYK1).
T1 construct: host or cells: HEK-Blue cells
T1 sequence (Q9NYK1 27-1049): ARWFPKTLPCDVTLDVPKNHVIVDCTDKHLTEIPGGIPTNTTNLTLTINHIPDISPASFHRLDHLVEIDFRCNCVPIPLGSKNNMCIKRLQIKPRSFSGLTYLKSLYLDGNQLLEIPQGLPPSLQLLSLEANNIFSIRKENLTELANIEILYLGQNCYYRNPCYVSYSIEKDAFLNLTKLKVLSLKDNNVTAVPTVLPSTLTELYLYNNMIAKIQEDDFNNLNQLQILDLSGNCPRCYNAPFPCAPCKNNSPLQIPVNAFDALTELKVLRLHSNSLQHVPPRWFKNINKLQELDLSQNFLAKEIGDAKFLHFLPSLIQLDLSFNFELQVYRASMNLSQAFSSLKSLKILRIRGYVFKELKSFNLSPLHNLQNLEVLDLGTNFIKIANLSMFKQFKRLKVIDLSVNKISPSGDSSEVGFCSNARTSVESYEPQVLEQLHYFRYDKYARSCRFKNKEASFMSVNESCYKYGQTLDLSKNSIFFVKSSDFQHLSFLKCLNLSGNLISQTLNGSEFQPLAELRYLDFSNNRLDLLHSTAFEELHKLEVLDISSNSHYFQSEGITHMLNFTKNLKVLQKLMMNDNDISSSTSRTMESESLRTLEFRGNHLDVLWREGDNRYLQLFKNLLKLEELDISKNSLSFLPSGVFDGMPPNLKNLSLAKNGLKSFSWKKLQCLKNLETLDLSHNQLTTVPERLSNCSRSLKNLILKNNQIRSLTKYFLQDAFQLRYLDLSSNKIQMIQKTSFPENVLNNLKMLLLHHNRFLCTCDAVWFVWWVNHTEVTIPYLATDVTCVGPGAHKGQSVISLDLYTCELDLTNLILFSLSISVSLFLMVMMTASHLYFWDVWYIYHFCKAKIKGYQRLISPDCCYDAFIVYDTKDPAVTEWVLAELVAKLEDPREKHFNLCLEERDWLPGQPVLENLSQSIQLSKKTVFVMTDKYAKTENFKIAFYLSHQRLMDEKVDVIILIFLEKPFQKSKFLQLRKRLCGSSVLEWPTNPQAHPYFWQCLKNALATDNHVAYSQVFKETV
As to the kind of experiment: TLR7 inhibition reporter assay (HEK-Blue cells, SEAP reporter, gardiquimod stimulation). The conditions noted are these: HEK-Blue cells overexpressing human TLR7, SEAP reporter, gardiquimod 7.5 μM; read-out: TLR7 IC50. In outline: (§1)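 Human TLR7/8/9 HEK-Blue reporter lines; dose range 0.05 nM–50 μM; 30 min RT preincubation; stimulus gardiquimod 7.5 μM / R848 15.9 μM / ODN2006 5 nM respectively; 22 h, 37 °C; SEAP detected colorimetrically.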
Background: A reporter such as luciferase makes a cellular process visible.

Test [2] deals with T2, human TLR8 (Homo sapiens, UniProt Q9NR97).
T2 construct: host or cells: HEK-Blue cells
T2 sequence (Q9NR97 27-1041): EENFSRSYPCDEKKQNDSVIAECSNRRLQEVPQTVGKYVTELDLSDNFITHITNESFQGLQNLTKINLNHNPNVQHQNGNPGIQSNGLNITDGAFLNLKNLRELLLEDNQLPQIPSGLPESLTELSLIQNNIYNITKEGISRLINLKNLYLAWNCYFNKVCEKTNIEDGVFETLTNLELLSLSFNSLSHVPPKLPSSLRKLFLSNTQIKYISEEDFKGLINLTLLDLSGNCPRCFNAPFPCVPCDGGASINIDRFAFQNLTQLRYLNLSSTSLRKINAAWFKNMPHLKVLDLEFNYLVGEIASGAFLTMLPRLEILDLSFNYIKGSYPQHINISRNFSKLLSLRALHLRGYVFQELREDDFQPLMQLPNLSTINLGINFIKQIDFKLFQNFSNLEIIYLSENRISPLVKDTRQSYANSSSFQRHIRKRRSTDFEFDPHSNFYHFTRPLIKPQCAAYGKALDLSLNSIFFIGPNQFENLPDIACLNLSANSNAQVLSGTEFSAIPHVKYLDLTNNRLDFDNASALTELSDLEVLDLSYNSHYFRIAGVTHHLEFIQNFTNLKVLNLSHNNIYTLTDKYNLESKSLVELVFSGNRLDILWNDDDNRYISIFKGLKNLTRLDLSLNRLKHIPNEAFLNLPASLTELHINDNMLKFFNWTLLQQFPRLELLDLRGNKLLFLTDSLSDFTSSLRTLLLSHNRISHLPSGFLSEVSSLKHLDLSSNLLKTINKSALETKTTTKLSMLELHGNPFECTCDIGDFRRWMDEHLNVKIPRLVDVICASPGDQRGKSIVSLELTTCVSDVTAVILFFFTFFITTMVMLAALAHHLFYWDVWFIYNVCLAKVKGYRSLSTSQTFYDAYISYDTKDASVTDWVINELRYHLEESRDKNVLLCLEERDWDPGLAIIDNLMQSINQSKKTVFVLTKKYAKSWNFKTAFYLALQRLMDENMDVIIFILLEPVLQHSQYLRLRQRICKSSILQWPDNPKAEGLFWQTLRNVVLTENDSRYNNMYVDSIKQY
As to the kind of experiment: TLR8 inhibition reporter assay (HEK-Blue cells, SEAP reporter, R848 stimulation). The conditions noted are these: HEK-Blue cells overexpressing human TLR8, SEAP reporter, R848 15.9 μM; read-out: TLR8 IC50. The essentials:
as §1

In test [3] the target is T3, human TLR9 (Homo sapiens, UniProt Q9NR96).
T3 construct: host or cells: HEK-Blue cells
T3 sequence (Q9NR96 26-1032): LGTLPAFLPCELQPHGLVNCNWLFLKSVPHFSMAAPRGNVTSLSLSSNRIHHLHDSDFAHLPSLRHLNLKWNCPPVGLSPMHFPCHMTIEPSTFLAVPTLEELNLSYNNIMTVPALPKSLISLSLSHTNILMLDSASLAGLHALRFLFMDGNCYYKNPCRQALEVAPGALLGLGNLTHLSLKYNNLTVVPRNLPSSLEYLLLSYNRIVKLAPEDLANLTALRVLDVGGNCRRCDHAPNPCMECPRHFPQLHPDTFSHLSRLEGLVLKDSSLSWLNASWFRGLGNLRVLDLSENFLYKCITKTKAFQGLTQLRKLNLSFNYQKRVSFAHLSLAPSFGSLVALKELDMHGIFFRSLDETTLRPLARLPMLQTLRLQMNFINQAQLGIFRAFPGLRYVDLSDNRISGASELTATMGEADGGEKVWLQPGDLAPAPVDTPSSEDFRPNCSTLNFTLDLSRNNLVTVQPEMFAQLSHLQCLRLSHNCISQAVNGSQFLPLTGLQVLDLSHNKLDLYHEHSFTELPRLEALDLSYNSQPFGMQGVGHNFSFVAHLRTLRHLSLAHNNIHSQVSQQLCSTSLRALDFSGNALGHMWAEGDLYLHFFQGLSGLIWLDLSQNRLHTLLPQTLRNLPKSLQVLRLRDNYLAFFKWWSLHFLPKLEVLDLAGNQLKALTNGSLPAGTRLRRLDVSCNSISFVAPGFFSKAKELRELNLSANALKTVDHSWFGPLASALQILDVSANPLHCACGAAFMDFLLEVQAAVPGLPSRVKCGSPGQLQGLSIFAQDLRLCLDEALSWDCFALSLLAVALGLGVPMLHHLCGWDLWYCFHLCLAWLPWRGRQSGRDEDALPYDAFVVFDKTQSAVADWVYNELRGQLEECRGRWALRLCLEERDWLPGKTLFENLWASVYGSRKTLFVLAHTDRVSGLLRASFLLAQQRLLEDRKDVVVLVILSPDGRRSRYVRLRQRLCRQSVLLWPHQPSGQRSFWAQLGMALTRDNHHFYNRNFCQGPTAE
The experiment in a line: TLR9 inhibition reporter assay (HEK-Blue cells, SEAP reporter, ODN2006 stimulation). Conditions: HEK-Blue cells overexpressing human TLR9, SEAP reporter, ODN2006 5 nM. The essentials: as §1

The term IC50 denotes the concentration needed to halve the response being measured. Turning to `Cc1c(-c2[nH]c3sc(N4C[C@@H](C)N(C(C)C)C[C@@H]4C)nc3c2C(C)C)cn2ncnc2c1C` [Example 330, 5-(7,8-dimethyl-[1,2,4]triazolo[1,5-a]pyridin-6-yl)-6-isopropyl-2-((2S,5R)-4-isopropyl-2,5-dimethylpiperazin-1-yl)-4H-pyrrolo[3,2-d] thiazole], the values for the IC50 in test [1], in test [2] and in test [3] were 8.34 nM, 1.5 nM and 11400 nM, respectively.

Consider `CCN1C[C@H](C)N(c2nc3c(C(C)C)c(-c4cn5ncnc5c(C)c4C)[nH]c3s2)C[C@H]1C` [Example 331, 5-(7,8-dimethyl-[1,2,4]triazolo[1,5-a]pyridin-6-yl)-2-((2S,5R)-4-ethyl-2,5-dimethylpiperazin-1-yl)-6-isopropyl-4H-pyrrolo[3,2-d]thiazole], for which the IC50 in test [1] stood at 4.29 nM; in test [2], 0.49 nM; in test [3], 6310 nM.

With `Cc1c(-c2[nH]c3sc(N4C[C@@H](C)N(CC5CC5)C[C@@H]4C)nc3c2C(C)C)cn2ncnc2c1C` [Example 332, 2-((2S,5R)-4-(cyclopropylmethyl)-2,5-dimethylpiperazin-1-yl)-5-(7,8-dimethyl-[1,2,4]triazolo[1,5-a]pyridin-6-yl)-6-isopropyl-4H-pyrrolo[3,2-d]thiazole], the IC50 in test [1] worked out at 16.9 nM; in test [2], 1.91 nM; in test [3], 10200 nM.

Turning to `Cc1c(-c2[nH]c3sc(N4C[C@@H](C)N(C5CCC5)C[C@@H]4C)nc3c2C(C)C)cn2ncnc2c1C` [Example 333, 2-((2S,5R)-4-cyclobutyl-2,5-dimethylpiperazin-1-yl)-5-(7,8-dimethyl-[1,2,4]triazolo[1,5-a]pyridin-6-yl)-6-isopropyl-4H-pyrrolo[3,2-d]thiazole], the IC50 is 34.9 nM in test [1], 2.19 nM in test [2] and 37400 nM in test [3].

Take `Cc1c(-c2[nH]c3sc(N4C[C@@H](C)N(C(C)C)C[C@@H]4C)nc3c2C(C)C)cn2ncnc2c1C` [Example 334, 5-(7,8-dimethyl-[1,2,4]triazolo[1,5-a]pyridin-6-yl)-6-isopropyl-2-((2S,5R)-4-isopropyl-2,5-dimethylpiperazin-1-yl)-4H-pyrrolo[3,2-d]thiazole]: the results for the IC50 in test [1], in test [2] and in test [3] were 13.6 nM, 3.19 nM and 4830 nM, respectively.

As to `CNC(=O)CN1C[C@H](C)N(c2nc3c(C(C)C)c(-c4cn5ncnc5c(C)c4C)[nH]c3s2)C[C@H]1C` [Example 336, 2-((2R,5S)-4-(5-(7,8-dimethyl-[1,2,4]triazolo[1,5-a]pyridin-6-yl)-6-isopropyl-4H-pyrrolo[3,2-d]thiazol-2-yl)-2,5-dimethylpiperazin-1-yl)-N-methylacetamide], the IC50 in test [1] stood at 13.5 nM; in test [2], 39.7 nM; in test [3], 38100 nM.

Regarding `Cc1c(-c2[nH]c3sc(N4C[C@@H](C)N(CCS(C)(=O)=O)C[C@@H]4C)nc3c2C(C)C)cn2ncnc2c1C` [Example 337, 2-((2S,5R)-2,5-dimethyl-4-(2-(methylsulfonyl)ethyl)piperazin-1-yl)-5-(7,8-dimethyl-[1,2,4]triazolo[1,5-a]pyridin-6-yl)-6-isopropyl-4H-pyrrolo[3,2-d]thiazole], the IC50 in test [1] was 8.27 nM; in test [2] it was 7.61 nM; in test [3], 42400 nM.

Turning to `Cc1c(-c2[nH]c3sc(N4C[C@@H](C)N(CC(N)=O)C[C@@H]4C)nc3c2C(C)C)cn2ncnc2c1C` [Example 338, 2-((2R,5S)-4-(5-(7,8-dimethyl-[1,2,4]triazolo[1,5-a]pyridin-6-yl)-6-isopropyl-4H-pyrrolo[3,2-d]thiazol-2-yl)-2,5-dimethylpiperazin-1-yl)acetamide], the figures for the IC50 in test [1], in test [2] and in test [3] were 10.1 nM, 31.1 nM and 45600 nM, respectively.

For `Cc1c(-c2[nH]c3sc(N4C[C@@H](C)N(CC(C)(C)O)C[C@@H]4C)nc3c2C(C)C)cn2ncnc2c1C` [Example 339, 1-((2R,5S)-4-(5-(7,8-dimethyl-[1,2,4]triazolo[1,5-a]pyridin-6-yl)-6-isopropyl-4H-pyrrolo[3,2-d]thiazol-2-yl)-2,5-dimethylpiperazin-1-yl)-2-methylpropan-2-ol], the IC50 in test [1] is 19.9 nM; in test [2], 3.86 nM; in test [3], 36600 nM.

Take `CNCC(=O)N1C[C@H](C)N(c2nc3c(C(C)C)c(-c4cn5ncnc5c(C)c4C)[nH]c3s2)C[C@H]1C` [Example 340, 1-((2R,5S)-4-(5-(7,8-dimethyl-[1,2,4]triazolo[1,5-a]pyridin-6-yl)-6-isopropyl-4H-pyrrolo[3,2-d]thiazol-2-yl)-2,5-dimethylpiperazin-1-yl)-2-(methylamino)ethan-1-one]: the IC50 in test [1] amounted to 4.64 nM; in test [2], 3.38 nM; in test [3] it was 5220 nM.
